{
  "source": "patent EP0133934A2",
  "about": "“Pharmacologically active 1,3,4-thiadiazol-(3,2-a)-thieno-(2,3-d)-pyrimidin-5-(H)one derivatives” (NIKEPHARMA S.r.l., priority 1983, dated 1985)",
  "key": {"[1]": {"tested_on": "phenylbenzoquinone writhing test", "assay": "Phenylbenzoquinone writhing test in the mouse (ED50 and duration of effect)", "format": "in vivo", "details": "for % INHI-BITION / N° OF WRITHES IN 10' ml ± E.S.: Table 6, oral, one hour before the test; for N° OF WRITHES IN 10' ml ± E.S.: controls 52.4 ± 1.69; for % INHIBITION / Nº OF WRITHES IN 10' ml ± E.S.: Table 7, oral 1 mg/kg; for Nº OF WRITHES IN 10' ml ± E.S.: controls 53.2 ± 1.26", "description": "The analgesic effect was determined by the number of writhes of the abdomen recorded during 10 minutes (from 5 to 15 minutes after the phenylbenzo quinone injection)."}, "[2]": {"tested_on": "acetic acid peritonitis", "assay": "Anti-exudative activity: acetic acid peritonitis in the rat", "format": "in vivo", "details": "for EXUDATE VOLUME ml ± E.S.: controls 2.58 ± 0.18", "description": "The test was carried out according to the procedure described by Arrigoni-Martelli (Boll.Chim. Far. 107, 29, 1968). This method is based upon the evaluation of the anti-exudative effect of a drug at the peritoneal level, following a intraperitoneal injection of 10 ml/kg of a 0.5% acetic acid solution.\nThe compounds under test were administered oral ly one hour before the inflammatory agent; 30 minutes after the treatment the animals were killed and the fluid from the peritoneal cavity was drawn and measured.\nThe test compounds were administered by oral route 1 hour before intraperitoneal injection of acetic acid (10 ml/kg of a 0.5% solution).\nThe anti-exudative activity was determined on the basis of the peritoneal exudate of the treated animals, in comparison with the controls."}, "[3]": {"tested_on": "carrageenin oedema", "assay": "Antiinflammatory activity: carrageenin oedema in the rat", "format": "in vivo", "details": "po, 4 h, os, 100 mg/kg, one hour before carrageenin, read-out: OEDEMA INHIBITION % at the fourth hour", "description": "(§1) The activity tests were carried out on male Spra gue-Dawley rats weighing 200+20 g and on male Swiss mice weighing 26+3 g.\n(§2) The test compounds were administered orally by means of gastroesophageal tube, in the form of a suspen sion in a 10 ml/kg mucilage of 5% gum arabic; and intraperitoneally in the form of an aqueous suspen sion added with a few drops of Tween 80, in the con stant volume of 10 ml/kg.\nThe compounds under test and the control ones were administered orally one hour before the injection of 0.1 ml of 1% carrageenin in the right paw of the animals.\nThe volume of the paw was measured by means of a plethysmograph immediately before the injection and 2, 4 and 6 hours after.\nThe results were expressed as percentage inhibi tion of the oedema in the treated animals in comparison with the control animals, at the time of the maximum oedema development (fourth hour after the carrageenin injection)."}, "[4]": {"tested_on": "Writhing test induced by phenyl-benzoquinone", "assay": "Phenylbenzoquinone writhing test in the rat", "format": "in vivo", "description": "as §1, §2"}, "[5]": {"tested_on": "Carrageenin pleuritis", "assay": "Carrageenin pleuritis in the rat", "format": "in vivo", "details": "for EXUDATE VOLUME: 30 min. before carrageenin and 6 hours after, exudate at 18 hours, controls 2.76 ± 0.38", "description": "Compound HA-34 was tested for the protective activity against the exudative pleuritis reaction induced by carrageenin. HA-34 was administered 30 min. before the injection of carrageenin, and 6 hours after it. The experiment was carried out on male Spra- gue-Dawley rats, anestethized with ethyl urethane, which were subjected, in their right pleural cavity, to injection of 1.5 ml of air and then 0.1 ml of a 1% carrageenin solution, in sterile normal saline, according to the procedure by Van Armann et al. (J. Pharmac. Exp. Ther., 150, 328, 1965). Indometha cin and Piroxicam were employed as the control drugs, under the same conditions. 18 Hours after the intrapleuric carrageenin injec tion, the animals were killed by means of ether inhalation, and the pleuric exudate was collected and measured."}, "[6]": {"tested_on": "gastric ulceration", "format": "in vivo, rat", "details": "os, 400 mg/kg", "description": "To rats fasted for 18 hours, with water ad libitum, were administered the compounds under test at \"0\" time and after 2 hours. Control rats were treated with established anti-inflammatory agents.\n6 Hours after the beginning of the test, the animals were killed by ether inhalation.\nGastric ulceration was assessed on the ground of values ranging from 0 to 4: • 0 = no ulceration; • 1 = slight iperhaemia and/or a few ulcers; • 2 = severe iperhaemia and many punctiform ulcers; • 3 = severe submucosal hemorrage, one large ulcer and many punctiform ulcers; • 4 severe submucosal hemorrage and many large ulcers.\nThe ulcerogenic index was measured by the following formula (Lwoff. J.M., J. Pharmacol., 2, 81, 1971): [formula]"}, "[7]": {"details": "30 min. before phenylbenzoquinone"}},
  "data": [
    {"smiles": "CSc1nn2c(=O)c3c4c(sc3nc2s1)CCCC4", "note": "[HA 34, 2-Methyl-mercapto-6,7,8,9-tetrahydro-5H[1]-benao-thieno[2,3-d]-1,3,4-thiadiazole[3,2-a]pyrimidin-5[H]-one]", "values": [
      {"measurement": "ED50", "setting": "[1]; Mus musculus, 1 h, oral administration one hour before the test, read-out: ED50", "result": 1, "unit": "mg/kg"},
      {"measurement": "% INHI-BITION", "setting": "[1]; 0.1 mg/kg", "result": 15.8, "unit": "%"},
      {"measurement": "N° OF WRITHES IN 10' ml ± E.S.", "setting": "[1]; 0.1 mg/kg", "result": "44.1 ± 1.12"},
      {"measurement": "% INHI-BITION", "setting": "[1]; 0.5 mg/kg", "result": 31.3, "unit": "%"},
      {"measurement": "N° OF WRITHES IN 10' ml ± E.S.", "setting": "[1]; 0.5 mg/kg", "result": "36.0 ± 1.33"},
      {"measurement": "% INHI-BITION", "setting": "[1]; 1 mg/kg", "result": 67.2, "unit": "%"},
      {"measurement": "N° OF WRITHES IN 10' ml ± E.S.", "setting": "[1]; 1 mg/kg", "result": "17.2 ± 0.87"},
      {"measurement": "% INHI-BITION", "setting": "[1]; 2 mg/kg", "result": 73.6, "unit": "%"},
      {"measurement": "N° OF WRITHES IN 10' ml ± E.S.", "setting": "[1]; 2 mg/kg", "result": "13.8 ± 1.12"},
      {"measurement": "% INHI-BITION", "setting": "[1]; 5 mg/kg", "result": 79.8, "unit": "%"},
      {"measurement": "N° OF WRITHES IN 10' ml ± E.S.", "setting": "[1]; 5 mg/kg", "result": "10.6 ± 1.06"},
      {"measurement": "% INHIBITION", "setting": "[1]; [7]", "result": 63.9, "unit": "%"},
      {"measurement": "Nº OF WRITHES IN 10' ml ± E.S.", "setting": "[1]; [7]", "result": "19.2 ± 1.18"},
      {"measurement": "% INHIBITION", "setting": "[1]; 1 h before phenylbenzoquinone", "result": 65.4, "unit": "%"},
      {"measurement": "Nº OF WRITHES IN 10' ml ± E.S.", "setting": "[1]; 1 h before phenylbenzoquinone", "result": "18.4 ± 1.07"},
      {"measurement": "% INHIBITION", "setting": "[1]; 3 h before phenylbenzoquinone", "result": 69.9, "unit": "%"},
      {"measurement": "Nº OF WRITHES IN 10' ml ± E.S.", "setting": "[1]; 3 h before phenylbenzoquinone", "result": "16.0 ± 1.26"},
      {"measurement": "% INHIBITION", "setting": "[1]; 4 h before phenylbenzoquinone", "result": 65.4, "unit": "%"},
      {"measurement": "Nº OF WRITHES IN 10' ml ± E.S.", "setting": "[1]; 4 h before phenylbenzoquinone", "result": "18.4 ± 1.74"},
      {"measurement": "% INHIBITION", "setting": "[1]; 6 h before phenylbenzoquinone", "result": 62.0, "unit": "%"},
      {"measurement": "Nº OF WRITHES IN 10' ml ± E.S.", "setting": "[1]; 6 h before phenylbenzoquinone", "result": "20.2 ± 1.24"},
      {"measurement": "% INHIBITION", "setting": "[1]; 8 h before phenylbenzoquinone", "result": 59.4, "unit": "%"},
      {"measurement": "Nº OF WRITHES IN 10' ml ± E.S.", "setting": "[1]; 8 h before phenylbenzoquinone", "result": "21.6 ± 1.32"},
      {"measurement": "% INHIBITION", "setting": "[1]; 24 h before phenylbenzoquinone", "result": 58.3, "unit": "%"},
      {"measurement": "Nº OF WRITHES IN 10' ml ± E.S.", "setting": "[1]; 24 h before phenylbenzoquinone", "result": "22.2 ± 1.46"},
      {"measurement": "% INHIBITION", "setting": "[1]; 32 h before phenylbenzoquinone", "result": 30.6, "unit": "%"},
      {"measurement": "Nº OF WRITHES IN 10' ml ± E.S.", "setting": "[1]; 32 h before phenylbenzoquinone", "result": "36.9 ± 2.01"},
      {"measurement": "duration of action", "setting": "[1]; oral 1 mg/kg, result in words", "result": "longer lasting than that of Indomethacin and substantially comparable with that of Piroxicam"},
      {"measurement": "inhibition in vivo at 10 mg/kg", "setting": "[2]; Rattus norvegicus, po, Table 4, os, 10 mg/kg", "result": 64, "unit": "%"},
      {"measurement": "inhibition in vivo at 0.1 mg/kg", "setting": "[2]; Rattus norvegicus, po, Table 8, oral, 0.1 mg/kg", "result": 26.7, "unit": "%"},
      {"measurement": "inhibition in vivo at 0.5 mg/kg", "setting": "[2]; Rattus norvegicus, po, Table 8, oral, 0.5 mg/kg", "result": 48, "unit": "%"},
      {"measurement": "inhibition in vivo at 1 mg/kg", "setting": "[2]; Rattus norvegicus, po, Table 8, oral, 1 mg/kg", "result": 53.2, "unit": "%"},
      {"measurement": "inhibition in vivo at 10 mg/kg", "setting": "[2]; Rattus norvegicus, po, Table 8, oral, 10 mg/kg", "result": 78.8, "unit": "%"},
      {"measurement": "inhibition in vivo at 20 mg/kg", "setting": "[2]; Rattus norvegicus, po, Table 8, oral, 20 mg/kg", "result": 94.2, "unit": "%"},
      {"measurement": "ED50", "setting": "[2]; Rattus norvegicus, oral administration 1 hour before i.p. acetic acid", "result": 0.7, "unit": "mg/kg"},
      {"measurement": "PERITONEAL EXUDATE ml ± E.S.", "setting": "[2]; Table 4, os, 10 mg/kg, controls 2.91 ± 0.12", "result": "0.75 ± 0.11", "unit": "mL"},
      {"measurement": "EXUDATE VOLUME ml ± E.S.", "setting": "[2]; Table 8, oral, 0.1 mg/kg, 1 hour before acetic acid", "result": "1.89 ± 0.14", "unit": "mL"},
      {"measurement": "EXUDATE VOLUME ml ± E.S.", "setting": "[2]; Table 8, oral, 0.5 mg/kg", "result": "1.34 ± 0.07", "unit": "mL"},
      {"measurement": "EXUDATE VOLUME ml ± E.S.", "setting": "[2]; Table 8, oral, 1 mg/kg", "result": "1.20 ± 0.10", "unit": "mL"},
      {"measurement": "EXUDATE VOLUME ml ± E.S.", "setting": "[2]; Table 8, oral, 10 mg/kg", "result": "0.54 ± 0.08", "unit": "mL"},
      {"measurement": "EXUDATE VOLUME ml ± E.S.", "setting": "[2]; Table 8, oral, 20 mg/kg", "result": "0.15 ± 0.07", "unit": "mL"},
      {"measurement": "inhibition in vivo at 100 mg/kg", "setting": "[3]", "result": "48.8 ± 0.91", "unit": "%"},
      {"measurement": "inhibition in vivo at 0.5 mg/kg", "setting": "[4]; Rattus norvegicus, po, 10 min, os, 0.5 mg/kg, read-out: % INHIBI-TION", "result": 24, "unit": "%"},
      {"measurement": "inhibition in vivo at 5 mg/kg", "setting": "[4]; Rattus norvegicus, po, 10 min, os, 5 mg/kg, read-out: % INHIBI-TION", "result": 81, "unit": "%"},
      {"measurement": "analgesic action", "setting": "[4]; oral doses of 5 and 0.5 mg/kg, result in words", "result": "the more active of the tested compounds"},
      {"measurement": "% INHIBITION", "setting": "[5]; 5 mg/kg", "result": 34.8, "unit": "%"},
      {"measurement": "EXUDATE VOLUME", "setting": "[5]; 5 mg/kg", "result": "1.80 ± 0.29"},
      {"measurement": "% INHIBITION", "setting": "[5]; 10 mg/kg", "result": 63.0, "unit": "%"},
      {"measurement": "EXUDATE VOLUME", "setting": "[5]; 10 mg/kg", "result": "1.02 ± 0.26"},
      {"measurement": "inhibiting action on the pleuric exudative reaction", "setting": "[5]; at the tested doses, result in words", "result": "significant inhibiting action"},
      {"measurement": "ULCERA-TION INDEX", "setting": "[6]", "result": 0},
      {"measurement": "% ANIMALS WITH ULCERS", "setting": "[6]; at 0 time and after 2 hours, killed at 6 hours", "result": 0, "unit": "%"},
      {"measurement": "ULCERA-TION DEGREE", "setting": "[6]; scale 0 to 4", "result": 0}
    ]}
  ]
}
